Test results: the supplement of paper PMC10307832

Tests used:
Assay in all cases: relative viability (nuclei count vs DMSO), 5 days (fraction); higher = more cells survive
XMD13-2 + Foretinib = compound: C1CC1C(=O)NC2=NNC3=C2C=CC(=C3)C4=CC(=CC=C4)C(=O)NC5CC5 [XMD13-2] + COc1cc2c(Oc3ccc(NC(=O)C4(C(=O)Nc5ccc(F)cc5)CC4)cc3F)ccnc2cc1OCCCN1CCOCC1 [Foretinib] (partner 0.25 µM)
Summary of the method: (§1)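 A single step with final 0.05% Triton X-100, 1% formaldehyde and 1 ug/ml Hoechst fixed the cells and stained nuclei 5 days after treatment. Lung cancer cell lines in 1536-well plates had been treated by pin tool the day after seeding with one drug alone or a fixed anchor-drug dose plus five library-drug doses (not always all listed) in √10 steps, and nuclei were counted on 4× images. Relative viability is the ratio of nuclei in treated wells to nuclei in vehicle wells, taken as the median of duplicate plates.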

ALW-II-49-7 + OSI-027 = compound: Cc1ccc(C(=O)Nc2cccc(C(F)(F)F)c2)cc1Nc1cncc(C(N)=O)c1 [ALW-II-49-7] + COc1cccc2cc(-c3nc([C@H]4CC[C@H](C(=O)O)CC4)n4ncnc(N)c34)[nH]c12 [OSI-027] (partner 0.5 µM)
Summary of the method: as §1

Dasatinib + Lapatinib = compound: Cc1nc(Nc2ncc(C(=O)Nc3c(C)cccc3Cl)s2)cc(N2CCN(CCO)CC2)n1 [Dasatinib] + CS(=O)(=O)CCNCc1ccc(-c2ccc3ncnc(Nc4ccc(OCc5cccc(F)c5)c(Cl)c4)c3c2)o1 [Lapatinib] (partner 2 µM)
Summary of the method: as §1

XMD13-2 + Decitabine = compound: C1CC1C(=O)NC2=NNC3=C2C=CC(=C3)C4=CC(=CC=C4)C(=O)NC5CC5 [XMD13-2] + Nc1ncn([C@H]2C[C@H](O)[C@@H](CO)O2)c(=O)n1 [Decitabine] (partner 2 µM)
Summary of the method: as §1

A-427
relative viability (XMD13-2 + Foretinib; first compound 0.05 µM): 1.23 | relative viability (XMD13-2 + Foretinib; first compound 0.1581 µM): 1.08 | relative viability (XMD13-2 + Foretinib; first compound 0.5 µM): 1.05 | relative viability (XMD13-2 + Foretinib; first compound 1.581 µM): 1.02 | relative viability (XMD13-2 + Foretinib; first compound 5 µM): 0.745 | relative viability (ALW-II-49-7 + OSI-027; first compound 0.08 µM): 0.412 | relative viability (ALW-II-49-7 + OSI-027; first compound 0.253 µM): 0.484 | relative viability (ALW-II-49-7 + OSI-027; first compound 0.8 µM): 0.472 | relative viability (ALW-II-49-7 + OSI-027; first compound 2.53 µM): 0.444 | relative viability (ALW-II-49-7 + OSI-027; first compound 8 µM): 0.473 | relative viability (Dasatinib + Lapatinib; first compound 0.005 µM): 0.89 | relative viability (Dasatinib + Lapatinib; first compound 0.01581 µM): 1.06 | relative viability (Dasatinib + Lapatinib; first compound 0.05 µM): 0.893 | relative viability (Dasatinib + Lapatinib; first compound 0.1581 µM): 0.646 | relative viability (Dasatinib + Lapatinib; first compound 0.5 µM): 0.551 | relative viability (XMD13-2 + Decitabine; first compound 0.05 µM): 0.574 | relative viability (XMD13-2 + Decitabine; first compound 0.1581 µM): 0.553 | relative viability (XMD13-2 + Decitabine; first compound 0.5 µM): 0.612 | relative viability (XMD13-2 + Decitabine; first compound 5 µM): 0.503

NCI-H1793
relative viability (XMD13-2 + Foretinib; first compound 0.05 µM): 0.84 | relative viability (XMD13-2 + Foretinib; first compound 0.5 µM): 0.966 | relative viability (XMD13-2 + Foretinib; first compound 1.581 µM): 0.791 | relative viability (XMD13-2 + Foretinib; first compound 5 µM): 0.68 | relative viability (ALW-II-49-7 + OSI-027; first compound 0.08 µM): 0.257 | relative viability (ALW-II-49-7 + OSI-027; first compound 0.253 µM): 0.301 | relative viability (ALW-II-49-7 + OSI-027; first compound 0.8 µM): 0.24 | relative viability (ALW-II-49-7 + OSI-027; first compound 2.53 µM): 0.235 | relative viability (ALW-II-49-7 + OSI-027; first compound 8 µM): 0.248 | relative viability (Dasatinib + Lapatinib; first compound 0.005 µM): 0.587 | relative viability (Dasatinib + Lapatinib; first compound 0.01581 µM): 0.46 | relative viability (Dasatinib + Lapatinib; first compound 0.05 µM): 0.349 | relative viability (Dasatinib + Lapatinib; first compound 0.1581 µM): 0.622 | relative viability (Dasatinib + Lapatinib; first compound 0.5 µM): 0.58 | relative viability (XMD13-2 + Decitabine; first compound 0.05 µM): 0.517 | relative viability (XMD13-2 + Decitabine; first compound 0.1581 µM): 0.481 | relative viability (XMD13-2 + Decitabine; first compound 0.5 µM): 0.581 | relative viability (XMD13-2 + Decitabine; first compound 1.581 µM): 0.431 | relative viability (XMD13-2 + Decitabine; first compound 5 µM): 0.507

NCI-H596
relative viability (XMD13-2 + Foretinib; first compound 0.05 µM): 0.89 | relative viability (XMD13-2 + Foretinib; first compound 0.1581 µM): 0.62 | relative viability (XMD13-2 + Foretinib; first compound 0.5 µM): 1.03 | relative viability (XMD13-2 + Foretinib; first compound 1.581 µM): 0.852 | relative viability (XMD13-2 + Foretinib; first compound 5 µM): 0.888 | relative viability (ALW-II-49-7 + OSI-027; first compound 0.08 µM): 0.777 | relative viability (ALW-II-49-7 + OSI-027; first compound 0.253 µM): 0.749 | relative viability (ALW-II-49-7 + OSI-027; first compound 0.8 µM): 0.589 | relative viability (ALW-II-49-7 + OSI-027; first compound 2.53 µM): 0.624 | relative viability (ALW-II-49-7 + OSI-027; first compound 8 µM): 0.776 | relative viability (Dasatinib + Lapatinib; first compound 0.005 µM): 1.03 | relative viability (Dasatinib + Lapatinib; first compound 0.01581 µM): 0.809 | relative viability (Dasatinib + Lapatinib; first compound 0.05 µM): 0.714 | relative viability (Dasatinib + Lapatinib; first compound 0.1581 µM): 0.586 | relative viability (Dasatinib + Lapatinib; first compound 0.5 µM): 0.423 | relative viability (XMD13-2 + Decitabine; first compound 0.05 µM): 0.934 | relative viability (XMD13-2 + Decitabine; first compound 0.1581 µM): 1.02 | relative viability (XMD13-2 + Decitabine; first compound 0.5 µM): 1 | relative viability (XMD13-2 + Decitabine; first compound 1.581 µM): 1.03 | relative viability (XMD13-2 + Decitabine; first compound 5 µM): 1.29

LU99A
relative viability (XMD13-2 + Foretinib; first compound 0.05 µM): 0.977 | relative viability (XMD13-2 + Foretinib; first compound 0.1581 µM): 0.734 | relative viability (XMD13-2 + Foretinib; first compound 0.5 µM): 0.831 | relative viability (XMD13-2 + Foretinib; first compound 1.581 µM): 0.824 | relative viability (XMD13-2 + Foretinib; first compound 5 µM): 0.58 | relative viability (ALW-II-49-7 + OSI-027; first compound 0.08 µM): 0.293 | relative viability (ALW-II-49-7 + OSI-027; first compound 0.253 µM): 0.288 | relative viability (ALW-II-49-7 + OSI-027; first compound 0.8 µM): 0.282 | relative viability (ALW-II-49-7 + OSI-027; first compound 2.53 µM): 0.282 | relative viability (ALW-II-49-7 + OSI-027; first compound 8 µM): 0.294 | relative viability (Dasatinib + Lapatinib; first compound 0.005 µM): 0.954 | relative viability (Dasatinib + Lapatinib; first compound 0.01581 µM): 0.838 | relative viability (Dasatinib + Lapatinib; first compound 0.05 µM): 0.914 | relative viability (Dasatinib + Lapatinib; first compound 0.1581 µM): 0.628 | relative viability (Dasatinib + Lapatinib; first compound 0.5 µM): 0.489 | relative viability (XMD13-2 + Decitabine; first compound 0.05 µM): 0.97 | relative viability (XMD13-2 + Decitabine; first compound 0.1581 µM): 0.881 | relative viability (XMD13-2 + Decitabine; first compound 0.5 µM): 0.945 | relative viability (XMD13-2 + Decitabine; first compound 1.581 µM): 0.857 | relative viability (XMD13-2 + Decitabine; first compound 5 µM): 0.808

NCI-H2009
relative viability (XMD13-2 + Foretinib; first compound 0.05 µM): 1.3 | relative viability (XMD13-2 + Foretinib; first compound 0.1581 µM): 1.2 | relative viability (XMD13-2 + Foretinib; first compound 0.5 µM): 1.2 | relative viability (XMD13-2 + Foretinib; first compound 1.581 µM): 1.17 | relative viability (XMD13-2 + Foretinib; first compound 5 µM): 1.3 | relative viability (ALW-II-49-7 + OSI-027; first compound 0.08 µM): 0.615 | relative viability (ALW-II-49-7 + OSI-027; first compound 0.253 µM): 0.67 | relative viability (ALW-II-49-7 + OSI-027; first compound 0.8 µM): 0.532 | relative viability (ALW-II-49-7 + OSI-027; first compound 2.53 µM): 0.408 | relative viability (ALW-II-49-7 + OSI-027; first compound 8 µM): 0.406 | relative viability (Dasatinib + Lapatinib; first compound 0.005 µM): 1.13 | relative viability (Dasatinib + Lapatinib; first compound 0.01581 µM): 1 | relative viability (Dasatinib + Lapatinib; first compound 0.05 µM): 0.96 | relative viability (Dasatinib + Lapatinib; first compound 0.1581 µM): 0.305 | relative viability (Dasatinib + Lapatinib; first compound 0.5 µM): 0.151 | relative viability (XMD13-2 + Decitabine; first compound 0.05 µM): 0.372 | relative viability (XMD13-2 + Decitabine; first compound 0.1581 µM): 0.394 | relative viability (XMD13-2 + Decitabine; first compound 0.5 µM): 0.427 | relative viability (XMD13-2 + Decitabine; first compound 1.581 µM): 0.449 | relative viability (XMD13-2 + Decitabine; first compound 5 µM): 0.387
